Source: US9408866B2, “Method for detoxification or measurement of at least one compound or at least one fluid in a host body” (NIVA, priority 2012, dated 2016)
Marks after values point to notes of the source that are not given here.

What was measured:
[1] = Contaminant masses in explanted silicone breast prostheses (acetone extraction, GC-MS); format: in vivo, human
Description: Silicone prostheses were obtained following breast implant surgery during a period spanning from July 2010 to January 2012. Reasons for explanation ranged from severe capsular contracture to a wish for a change in prosthesis size.
Prostheses were collected during surgical explanation from patients and wrapped individually in clean aluminium foil and stored in labelled plastic bags.
As soon as possible after, samples were stored in a freezer. Samples were then transported on ice to the laboratory and stored at −20° C. until analysis. For this proof-of-concept study, 9 prostheses were extracted and analysed. […] Two prostheses were duplicates and their analysis aimed to investigate the reproducibility of the analytical steps as well as of the representativeness of the sampling (samples 2, 6, and 9 in Table 1). All prostheses were made of medical silicone gel enclosed in an outer silicone shell filled with gel with various degree of cohesiveness. Differences between prostheses from various producers include volume, type of silicone material, surface texture and thickness of the outer shell and cohesive degree of the filling gel. Prostheses were tinted and tinting from light yellow to orange appeared (from visual inspection only) dependent on exposure time. […]
Silicone prosthesis extraction were performed in batches of 10-12 samples and included a blank prosthesis (volume of 200-450 cm^3), a spiked prosthesis to assess extraction efficiency and a solvent blank to evaluate potential contamination during extraction and extract clean-up. Extraction of the whole prostheses was undertaken in pre-baked 2 L beakers kept in the dark to prevent photo degradation. Samples were brought to room temperature and the surface was rinsed with ultrapure water and dried with a clean tissue. Connective tissue capsule attached to the surface of prostheses were removed. Samples were extracted by soaking in 1 L of acetone for 24 hours. Acetone was chosen for its low capacity to swell the silicone matrix and because of the ease with which it can volatilise. Recovery standards for organochlorines, PCBs and PBDEs (including for BDE-209) were added to the acetone. It was expected that 24 hours is sufficient for chemicals (present in either phases) to partition between the solvent phase and the silicone prosthesis. The acetone was replaced by another 1 L of acetone and samples were extracted for a further 24 hours. The two volumes of acetone were combined and reduced under a gentle stream of nitrogen. Prostheses were weighed before and after solvent extraction to determine the total amount of silicone oils and other substances removed from the matrix during solvent extraction. A second set of internal standards was used to evaluate possible losses during the sample clean-up step. The solvent was changed to isohexane and sample clean-up consisted of repeated sulphuric acid treatment until no colouring of the extract could be observed. Extract were then passed through a silica-filled solid phase extraction column and eluted with dichloromethane or isohexane. Extracts were reduced to an adequate volume before analysis.
Analytes were separated on a 30 m-long DB-5MS column (0.25 mm i.d. and 0.25 μm film thickness, Agilent JW Scientific, Santa Clara, USA) following 1 μL pulsed splitless injection (pulse pressure 20 psi for 1.2 min, injector temperature of 300° C.). The helium gas flow was set to 1.2 mL min^−1 and the GC oven temperature programme consisted of a step at 60° C. (held for 2 min) before an increase to 250° C. (at the rate 7° C. min^−1) and a final increase to 310° C. (at the rate of 15° C. min^−1) with this temperature held constant for a further 5 min. Ion source, quadrupole and transfer line temperatures were set to 230, 150 and 280° C., respectively. Quantification was performed using the relative response of surrogate internal standards (CB-30, CB-53 and CB-204) and 7-point calibration curves. […]

[2] = seal lipids, taken from Jahnke et al. (2008); cited from earlier work
[3] = POP concentration in lipids estimated from concentrations measured in prostheses; format: in vivo, human; details: estimated from silicone prosthesis concentrations, silicone density of 1.0 and Klip-sil values
Description: The representativeness and suitability of POP concentrations measured in explanted silicone prostheses can be evaluated through comparison with literature data on POP levels measured in breast milk or blood serum from Norwegian women. Using seal oil lipid-to-silicone partition coefficients, Klip-sil for PCBs and DDTs, estimates of POP concentrations in lipids of participants of the present invention were calculated. This approach assumes that the influence of the type of silicone and of lipids on lipid-silicone partition coefficients is minor.

[4] = mean, Norwegian women (n = 20) age 25-59, Thomsen et al. (2007); cited from earlier work
[5] = milk from Norwegian women (n = 70), Thomsen et al. (2011); cited from earlier work
[6] = Sample 2, duplicate explanted prostheses analysed in the same batch

Row | SMILES | Prosthesis contaminant mass, Mean [1, 6] [ng sample^−1] | Klip-sil (lipid-silicone partition coefficient) [2] [g/g] | Estimated Clipid [3] [ng/g] | Measured Cserum [4] [ng g^−1 lipid] | Measured Cmilk (median with range in brackets) [5] | Prosthesis contaminant mass, Mean ([1]; human, in vivo) [ng sample^−1]
1 | Brc1ccc(Oc2ccc(Br)cc2Br)cc1 [BDE-28] | 0.5 | – | – | – | – | –
2 | Brc1ccc(Oc2ccc(Br)cc2Br)c(Br)c1 [BDE-47] | 1.6 | – | – | – | – | –
3 | Brc1ccc(Oc2ccc(Br)c(Br)c2)cc1Br [BDE-77] | 0.8 | – | – | – | – | –
4 | Brc1cc(Br)c(Oc2cc(Br)c(Br)cc2Br)cc1Br [BDE-153] | 3.7 | – | – | – | – | –
5 | Brc1cc(Br)c(Oc2cc(Br)c(Br)cc2Br)c(Br)c1 [BDE-154] | 0.5 | – | – | – | – | –
6 | Brc1c(Br)c(Br)c(Oc2c(Br)c(Br)c(Br)c(Br)c2Br)c(Br)c1Br [BDE-209] | 6.5 | – | – | – | – | –
7 | Clc1ccc(Cl)c(-c2cc(Cl)ccc2Cl)c1 [CB-52] | – | 19.2 | – | – | – | –
8 | Clc1ccc(Cl)c(-c2cc(Cl)c(Cl)cc2Cl)c1 [CB-101] | 7.6 | 26.3 | 0.5 | 5.8 | 6.4 (1.8-36)^f ng g^−1 lipid | –
9 | Clc1ccc(-c2ccc(Cl)c(Cl)c2Cl)cc1Cl [CB-105] | 11 | 35.4 | 1.5 | – | 1.8 (0.89-3.2)^f ng g^−1 lipid | –
10 | Clc1ccc(-c2cc(Cl)c(Cl)cc2Cl)cc1Cl [CB-118] | 52 | 35.2 | 7.5 | 8.0 | 9.3 (4.0-15)^f ng g^−1 lipid | –
11 | Clc1cc(Cl)c(-c2ccc(Cl)c(Cl)c2Cl)cc1Cl [CB-138] | 123 | 34.0 | 27 | 20 | 16 (8-30)^f ng g^−1 lipid | –
12 | Clc1cc(Cl)c(-c2cc(Cl)c(Cl)cc2Cl)cc1Cl [CB-153] | 252 | 38.1 | 62 | 43 | 38 (20-68) ng g^−1 lipid | –
13 | Clc1ccc(-c2cc(Cl)c(Cl)c(Cl)c2Cl)cc1Cl [CB-156] | 15 | 50.8 | 4.5 | – | 3.2 (1.5-5.9)^f ng g^−1 lipid | –
14 | Clc1cc(Cl)c(-c2cc(Cl)c(Cl)c(Cl)c2Cl)cc1Cl [CB-180] | 9.3 | 49.4 | 4.2 | 34 | 17 (8.5-32)^f ng g^−1 lipid | –
15 | Clc1c(Cl)c(Cl)c(Cl)c(Cl)c1Cl [HCB, hexachlorobenzene] | 181 | – | 10.9 | – | – | –
16 | ClC(Cl)=C(Cl)c1c(Cl)c(Cl)c(Cl)c(Cl)c1Cl [OCS, octachlorostyrene] | – | – | – | – | – | 3.5
17 | Clc1cc(Cl)c(Cl)c(Cl)c1Cl [PeCB, pentachlorobenzene] | 5.6 | – | – | – | – | –
18 | Clc1ccc(C(c2ccccc2Cl)C(Cl)(Cl)Cl)cc1 (centres unmarked) [o,p′-DDT] | – | 21.3 | 0.8 | – | – | –
19 | ClC(Cl)=C(c1ccc(Cl)cc1)c1ccc(Cl)cc1 [p,p′-DDE] | 543 | – | – | – | – | –
20 | Clc1ccc(C(c2ccc(Cl)cc2)C(Cl)(Cl)Cl)cc1 [p,p′-DDT] | 38 | 50.7 | 5.7 | – | – | –
